Reference: PubChem BioAssay (NCI)
“And” between values parts separate entries of the source, which are not always exact repeats. Equal entries are not always repeated.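 All cell lines were grown in 96-well plates and treated with compound for 48 hours. Here, GI50 denotes the concentration required for 50% inhibition of growth. The concentration for full growth arrest is given as TGI.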

Legend:
Experiment in all cases: NCI anticancer screen, dose series, 48 h
T-47D breast = test system: T-47D breast
NCI-H226 lung = test system: NCI-H226 lung
HL-60(TB) leukemia = test system: HL-60(TB) leukemia
SK-OV-3 ovarian = test system: SK-OV-3 ovarian
SF-295 CNS = test system: SF-295 CNS
RXF 393 renal = test system: RXF 393 renal
CCRF-CEM leukemia = test system: CCRF-CEM leukemia
UACC-62 melanoma = test system: UACC-62 melanoma
MCF7 breast = test system: MCF7 breast
SK-MEL-28 melanoma = test system: SK-MEL-28 melanoma

Compound `O=C1c2ccccc2C(=O)N1CC1(C(=O)O)NCCS1(=O)=O` (centres undefined) has a TGI (T-47D breast) of over 100 µM, a TGI (NCI-H226 lung) of over 100 µM and a TGI (HL-60(TB) leukemia) of over 100 µM. For the same compound, the TGI (SK-OV-3 ovarian) was over 100 µM, the TGI (SF-295 CNS) was over 100 µM and the TGI (RXF 393 renal) was over 100 µM. The TGI (CCRF-CEM leukemia) was over 100 µM, the TGI (UACC-62 melanoma) was over 100 µM and the TGI (MCF7 breast) was over 100 µM. It also gave a TGI (SK-MEL-28 melanoma) of over 100 µM.
`CSc1nnc(CCSc2ccnc3c(C(F)(F)F)cccc23)o1` gave a GI50 (T-47D breast) of 24.9 µM, a TGI (T-47D breast) of over 100 µM and a GI50 (NCI-H226 lung) of over 100 µM. The TGI (NCI-H226 lung) was over 100 µM, the GI50 (HL-60(TB) leukemia) was 55.1 µM and the TGI (HL-60(TB) leukemia) was over 100 µM. It also gave a GI50 (SK-OV-3 ovarian) of over 100 µM, a TGI (SK-OV-3 ovarian) of over 100 µM and a GI50 (SF-295 CNS) of 59.8 µM. For the same compound, the TGI (SF-295 CNS) was over 100 µM, the GI50 (RXF 393 renal) was 65.3 µM and the TGI (RXF 393 renal) was over 100 µM. The GI50 (CCRF-CEM leukemia) was 67.9 µM, the TGI (CCRF-CEM leukemia) was over 100 µM and the GI50 (UACC-62 melanoma) was over 100 µM. It also gave a TGI (UACC-62 melanoma) of over 100 µM, a GI50 (MCF7 breast) of over 100 µM and a TGI (MCF7 breast) of over 100 µM. The GI50 (SK-MEL-28 melanoma) was over 100 µM and the TGI (SK-MEL-28 melanoma) was over 100 µM.
With `Cc1ccc(C(=O)Nc2ccc(S(=O)(=O)O)c3cc(S(=O)(=O)O)cc(S(=O)(=O)O)c23)cc1NC(=O)c1cccc(N)c1` the TGI (T-47D breast) was over 100 µM, the TGI (NCI-H226 lung) was over 100 µM and the TGI (HL-60(TB) leukemia) was over 100 µM. It also gave a TGI (SK-OV-3 ovarian) of over 100 µM, a TGI (SF-295 CNS) of over 100 µM and a TGI (RXF 393 renal) of over 100 µM. For the same compound, the TGI (CCRF-CEM leukemia) was over 100 µM, the TGI (UACC-62 melanoma) was over 100 µM and the TGI (MCF7 breast) was over 100 µM. It also gave a TGI (SK-MEL-28 melanoma) of over 100 µM.
For `O=c1cc(CNc2cc(F)cc(F)c2)c2ccc(I)cc2[nH]1`, the GI50 (T-47D breast) was 1.01 µM, the TGI (T-47D breast) was over 100 µM and the TGI (NCI-H226 lung) was over 100 µM. It also gave a GI50 (HL-60(TB) leukemia) of 0.337 µM, a TGI (HL-60(TB) leukemia) of over 51.1 µM and a GI50 (SK-OV-3 ovarian) of 1.11 µM. For the same compound, the TGI (SK-OV-3 ovarian) was over 100 µM, the GI50 (SF-295 CNS) was 0.441 µM and the TGI (SF-295 CNS) was over 100 µM. For the same compound, the GI50 (RXF 393 renal) was 0.374 µM, the TGI (RXF 393 renal) was 38 µM and the GI50 (CCRF-CEM leukemia) was 0.498 µM. It also gave a TGI (CCRF-CEM leukemia) of over 57.7 µM, a GI50 (UACC-62 melanoma) of 0.508 µM and a TGI (UACC-62 melanoma) of over 100 µM. It also gave a GI50 (MCF7 breast) of 0.388 µM, a TGI (MCF7 breast) of over 100 µM and a GI50 (SK-MEL-28 melanoma) of over 67.3 µM. For the same compound, the TGI (SK-MEL-28 melanoma) was over 100 µM.
`Cn1c(=O)c2[nH]c(/N=N/N3CCN(CCO)CC3)nc2n(C)c1=O` showed a TGI (T-47D breast) of over 100 µM, a TGI (NCI-H226 lung) of over 100 µM and a TGI (HL-60(TB) leukemia) of over 100 µM. The TGI (SK-OV-3 ovarian) was over 100 µM, the TGI (SF-295 CNS) was over 100 µM and the TGI (RXF 393 renal) was over 100 µM. The TGI (CCRF-CEM leukemia) was over 100 µM, the TGI (UACC-62 melanoma) was over 100 µM and the TGI (MCF7 breast) was over 100 µM. The TGI (SK-MEL-28 melanoma) was over 100 µM.
`CC12CCC(=O)C=C1CCC1C2CCC2(C)C(C(=O)Cn3cnc4c(=S)nc[nH]c43)CCC12` (centres undefined) was tested, and the TGI (T-47D breast) was over 100 µM, the TGI (NCI-H226 lung) was over 100 µM and the TGI (HL-60(TB) leukemia) was over 100 µM. It also gave a TGI (SK-OV-3 ovarian) of over 100 µM, a TGI (SF-295 CNS) of 86.7 µM and a TGI (RXF 393 renal) of 44 µM. It also gave a TGI (CCRF-CEM leukemia) of over 100 µM, a TGI (UACC-62 melanoma) of over 100 µM and a TGI (MCF7 breast) of 36.7 µM. It also gave a TGI (SK-MEL-28 melanoma) of over 100 µM.
For `O=C(Nc1cccc(Cl)c1)Nc1ncc(CCNc2ncnc3ccsc23)s1`, the GI50 (T-47D breast) was 2.26 µM and 1.27 µM, the TGI (T-47D breast) was 7.5 µM and 5.63 µM and the GI50 (NCI-H226 lung) was 1.86 µM and 2.06 µM. For the same compound, the TGI (NCI-H226 lung) was 8.98 µM and > 10 µM, the GI50 (HL-60(TB) leukemia) was 4.93 µM and 3.37 µM and the TGI (HL-60(TB) leukemia) was 28.9 µM and > 10 µM. The GI50 (SK-OV-3 ovarian) was 9.12 µM and 4.86 µM, the TGI (SK-OV-3 ovarian) was 24.1 µM and > 10 µM and the GI50 (SF-295 CNS) was 0.215 µM and 0.593 µM. The TGI (SF-295 CNS) was 16.9 µM and > 10 µM, the GI50 (RXF 393 renal) was 1.93 µM and 2.16 µM and the TGI (RXF 393 renal) was 10.1 µM and > 10 µM. For the same compound, the GI50 (CCRF-CEM leukemia) was < 0.01 µM and 0.00391 µM, the TGI (CCRF-CEM leukemia) was over 100 µM and the GI50 (UACC-62 melanoma) was 1.1 µM. The TGI (UACC-62 melanoma) was 11.7 µM, the GI50 (MCF7 breast) was 1.17 µM and 1.31 µM and the TGI (MCF7 breast) was 15 µM and > 10 µM. For the same compound, the GI50 (SK-MEL-28 melanoma) was 3.85 µM and 2.42 µM and the TGI (SK-MEL-28 melanoma) was 17.4 µM and > 10 µM.
`CC(C)(O)c1ccc(N2CCN(c3nnc(Cc4ccccc4)c4ccccc34)CC2)nc1` gave a GI50 (T-47D breast) of 2.71 µM, a TGI (T-47D breast) of 14.6 µM and a GI50 (NCI-H226 lung) of 5.76 µM. It also gave a TGI (NCI-H226 lung) of 22.4 µM, a GI50 (HL-60(TB) leukemia) of 7.44 µM and a TGI (HL-60(TB) leukemia) of 31.1 µM. The GI50 (SK-OV-3 ovarian) was 18.7 µM, the TGI (SK-OV-3 ovarian) was 61.9 µM and the GI50 (SF-295 CNS) was 4.16 µM. For the same compound, the TGI (SF-295 CNS) was 16.7 µM, the GI50 (RXF 393 renal) was 6.76 µM and the TGI (RXF 393 renal) was 23.6 µM. The GI50 (CCRF-CEM leukemia) was 8.26 µM, the TGI (CCRF-CEM leukemia) was over 93 µM and the GI50 (UACC-62 melanoma) was 8.44 µM. For the same compound, the TGI (UACC-62 melanoma) was 21.9 µM, the GI50 (MCF7 breast) was 7.05 µM and the TGI (MCF7 breast) was 21.7 µM. The GI50 (SK-MEL-28 melanoma) was 12 µM and the TGI (SK-MEL-28 melanoma) was 24.9 µM.
Work on `NC(=O)[C@H]1CCN(c2ncnc(N)c2F)C[C@@H]1N1CCC[C@@H](Nc2cc(Cl)cc(C(F)(F)F)c2)C1=O` yielded a GI50 (T-47D breast) of 7.7 µM, a TGI (T-47D breast) of 76 µM and a GI50 (NCI-H226 lung) of 18.4 µM. The TGI (NCI-H226 lung) was 70 µM, the GI50 (HL-60(TB) leukemia) was 20.5 µM and the TGI (HL-60(TB) leukemia) was 42.5 µM. The GI50 (SK-OV-3 ovarian) was 6.33 µM, the TGI (SK-OV-3 ovarian) was 56.3 µM and the GI50 (SF-295 CNS) was 17.1 µM. For the same compound, the TGI (SF-295 CNS) was 41.8 µM, the GI50 (RXF 393 renal) was 6.01 µM and the TGI (RXF 393 renal) was 25.5 µM. The GI50 (CCRF-CEM leukemia) was 24.5 µM, the TGI (CCRF-CEM leukemia) was over 100 µM and the GI50 (UACC-62 melanoma) was 13.9 µM. It also gave a TGI (UACC-62 melanoma) of 29.5 µM, a GI50 (MCF7 breast) of 13.1 µM and a TGI (MCF7 breast) of 52.4 µM. It also gave a GI50 (SK-MEL-28 melanoma) of 18.5 µM and a TGI (SK-MEL-28 melanoma) of 44.3 µM.
In the case of `CN(C)CCNC(=O)c1cccn2c(=O)c3cc4ccccc4cc3nc12`, the GI50 (T-47D breast) is reported as 0.417 µM, the TGI (T-47D breast) is reported as 19 µM and the GI50 (NCI-H226 lung) is reported as 0.145 µM. It also gave a TGI (NCI-H226 lung) of 2.99 µM, a GI50 (HL-60(TB) leukemia) of 0.36 µM and a TGI (HL-60(TB) leukemia) of 9.73 µM. It also gave a GI50 (SK-OV-3 ovarian) of 0.235 µM, a TGI (SK-OV-3 ovarian) of 22.8 µM and a GI50 (SF-295 CNS) of 0.0679 µM. It also gave a TGI (SF-295 CNS) of 1.1 µM, a GI50 (RXF 393 renal) of 0.0981 µM and a TGI (RXF 393 renal) of 0.286 µM. The GI50 (CCRF-CEM leukemia) was 0.1 µM, the TGI (CCRF-CEM leukemia) was 32.6 µM and the GI50 (UACC-62 melanoma) was 0.194 µM. It also gave a TGI (UACC-62 melanoma) of 1.37 µM, a GI50 (MCF7 breast) of 0.232 µM and a TGI (MCF7 breast) of over 100 µM. The GI50 (SK-MEL-28 melanoma) was 0.424 µM and the TGI (SK-MEL-28 melanoma) was 2.9 µM.
Work on `N#CSc1ncnc2nc[nH]c12` yielded a GI50 (T-47D breast) of 2.25 µM, a TGI (T-47D breast) of over 80 µM and a GI50 (NCI-H226 lung) of over 100 µM. For the same compound, the TGI (NCI-H226 lung) was over 100 µM, the GI50 (HL-60(TB) leukemia) was 5.5 µM and the TGI (HL-60(TB) leukemia) was over 100 µM. For the same compound, the GI50 (SK-OV-3 ovarian) was 2.42 µM, the TGI (SK-OV-3 ovarian) was over 100 µM and the GI50 (SF-295 CNS) was 2.53 µM. For the same compound, the TGI (SF-295 CNS) was over 72.6 µM, the GI50 (RXF 393 renal) was 21.6 µM and the TGI (RXF 393 renal) was over 100 µM. For the same compound, the GI50 (CCRF-CEM leukemia) was 3.32 µM, the TGI (CCRF-CEM leukemia) was over 100 µM and the GI50 (UACC-62 melanoma) was 4.1 µM. The TGI (UACC-62 melanoma) was over 100 µM, the GI50 (MCF7 breast) was 2.35 µM and the TGI (MCF7 breast) was over 79.4 µM. The GI50 (SK-MEL-28 melanoma) was 44.4 µM and the TGI (SK-MEL-28 melanoma) was over 100 µM.
